Target: T1, human vasopressin V1b receptor (Homo sapiens, UniProt P47901)
T1 construct: expressed in transfected cells; host or cells: CHO-K1 (cell line hV1b-3H2_CHO), membrane preparation
T1 sequence (P47901 1-424): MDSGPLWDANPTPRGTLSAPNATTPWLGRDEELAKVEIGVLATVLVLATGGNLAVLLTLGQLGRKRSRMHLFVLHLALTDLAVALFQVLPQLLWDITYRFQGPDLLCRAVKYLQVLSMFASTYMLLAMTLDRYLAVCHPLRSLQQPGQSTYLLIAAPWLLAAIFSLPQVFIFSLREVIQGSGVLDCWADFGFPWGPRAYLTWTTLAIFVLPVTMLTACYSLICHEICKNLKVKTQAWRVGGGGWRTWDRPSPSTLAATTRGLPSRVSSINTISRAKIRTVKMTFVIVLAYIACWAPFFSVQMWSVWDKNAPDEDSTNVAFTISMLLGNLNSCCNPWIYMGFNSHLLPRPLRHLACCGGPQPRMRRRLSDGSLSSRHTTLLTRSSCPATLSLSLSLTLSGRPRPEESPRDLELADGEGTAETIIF
Experiment: Vasopressin V1b receptor binding assay
Settings: membranes from CHO-K1 cells with stably expressed human V1b receptors; displacement of 1.5 nM 3H-AVP; read-out: V1b receptor affinity (affinity constant Ki)
In short: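 Membranes expressing human V1b receptor were incubated with radioligand and test compound (2% DMSO final) in 50 mM Tris, 10 mM MgCl2, 0.1% BSA, pH 7.4, for 60 min at room temperature, in triplicate. 1 uM AVP defined nonspecific binding. Bound ligand was separated by filtration and counted by scintillation; Ki came from nonlinear regression.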

Row | Structure (SMILES) | Ki [nM]
1 | CCCN1CCN(C2CCN(C(=O)Cn3c(=O)n(S(=O)(=O)c4ccc(OC)cc4)c4ccc(Cl)cc43)C2)CC1 (stereo not shown) [Example 108, 5-Chloro-1-(4-methoxybenzenesulfonyl)-3-{2-oxo-2-[3-(4-propylpiperazin-1-yl)-pyrrolidin-1-yl]-ethyl}-1,3-dihydrobenzimidazol-2-one] | 500 to 10000
2 | COc1ccc(S(=O)(=O)n2c(=O)n(C(C(=O)N3CCN(c4ccncc4)CC3)c3ccccc3OC)c3cc(Cl)ccc32)c(OC)c1 (stereo not shown) [Example 12, 5-Chloro-1-(2,4-dimethoxybenzenesulfonyl)-3-[1-(2-methoxyphenyl)-2-oxo-2-(4-pyridin-4-ylpiperazin-1-yl)ethyl]-1,3-dihydrobenzimidazol-2-one] | 500 to 10000
3 | N#Cc1ccc(S(=O)(=O)n2c(=O)n(C(Cc3ccccc3)C(=O)N3CCN(c4ccncc4)CC3)c3cc(Cl)ccc32)cc1 (stereo not shown) [Example 29, 4-{3-[1-Benzyl-2-oxo-2-(4-pyridin-4-ylpiperazin-1-yl)ethyl]-5-chloro-2-oxo-2,3-dihydrobenzimidazol-1-sulfonyl}-benzonitrile] | 500 to 10000
4 | COc1ccc(S(=O)(=O)n2c(=O)n(C(C(=O)N3CC[C@H](N)C3)c3ccccc3)c3cc(C#N)ccc32)cc1 (stereo partly drawn) [Example 171, 3-[2-((S)-3-Aminopyrrolidin-1-yl)-2-oxo-1-phenylethyl]-1-(4-methoxybenzenesulfonyl)-2-oxo-2,3-dihydro-1H-benzimidazole-5-carbonitrile] | 500 to 10000
5 | COc1ccc(S(=O)(=O)n2c(=O)n(C(C(=O)N3CCN(C4CCN(C)CC4)CC3)c3ccccc3)c3cc(C#N)ccc32)cc1 (stereo not shown) [Example 11, 1-(4-Methoxybenzenesulfonyl)-3-{2-[4-(1-methylpiperidin-4-yl)piperazin-1-yl]-2-oxo-1-phenylethyl}-2-oxo-2,3-dihydro-1H-benzimidazole-5-carbonitrile] | 500 to 10000
6 | CCCN1CCN([C@H]2CCN(C(=O)C(c3ccccc3)n3c(=O)n(S(=O)(=O)c4cccc5cccnc45)c4ccc(C#N)cc43)C2)CC1 (stereo partly drawn) [Example 200, 2-oxo-3-{2-oxo-1-phenyl-2-[(S)-3-(4-propylpiperazin-1-yl)pyrrolidin-1-yl]-ethyl}-1-(quinoline-8-sulfonyl)-2,3-dihydro-1H-benzimidazole-5-carbonitrile] | 500 to 10000
7 | CCCOCCNC(=O)C(c1ccccc1)n1c(=O)n(S(=O)(=O)c2ccc(OC)cc2)c2ccc(Cl)cc21 (stereo not shown) [Example 122, 2-[6-Chloro-3-(4-methoxybenzenesulfonyl)-2-oxo-2,3-dihydrobenzimidazol-1-yl]-2-phenyl-N-(2-propoxyethyl)acetamide] | 500 to 10000
8 | O=C(C(c1ccccc1)n1c(=O)n(S(=O)(=O)c2cccs2)c2ccc(Cl)cc21)N1CCN(c2ccncc2)CC1 (stereo not shown) [Example 44, 5-Chloro-3-[2-oxo-1-phenyl-2-(4-pyridin-4-ylpiperazin-1-yl)ethyl]-1-(thiophene-2-sulfonyl)-1,3-dihydrobenzimidazol-2-one] | 100 to 500
9 | N#Cc1ccc2c(c1)n(C(C(=O)N1CCN(c3ccncc3)CC1)c1ccccc1)c(=O)n2S(=O)(=O)c1cccc2cccnc12 (stereo not shown) [Example 50, 2-Oxo-3-[2-oxo-1-phenyl-2-(4-pyridin-4-ylpiperazin-1-yl)ethyl]-1-(quinoline-8-sulfonyl)-2,3-dihydro-1H-benzimidazole-5-carbonitrile] | 500 to 10000
10 | COc1ccc(S(=O)(=O)n2c(=O)n(C(C(=O)N3CCCC(N)C3)c3ccccc3)c3cc(C#N)ccc32)cc1 (stereo not shown) [Example 170, 3-[2-(3-Aminopiperidin-1-yl)-2-oxo-1-phenylethyl]-1-(4-methoxybenzenesulfonyl)-2-oxo-2,3-dihydro-1H-benzimidazole-5-carbonitrile] | 500 to 10000
11 | COc1ccc(S(=O)(=O)n2c(=O)n(C(C(=O)N3CCN(c4ccncc4)CC3)c3ccccc3)c3cc(Cl)c(Cl)cc32)c(OC)c1 (stereo not shown) [Example 59, 5,6-Dichloro-1-(2,4-dimethoxybenzenesulfonyl)-3-[2-oxo-1-phenyl-2-(4-pyridin-4-ylpiperazin-1-yl)ethyl]-1,3-dihydrobenzoimidaz] | 500 to 10000
12 | CCCN1CCN([C@H]2CCN(C(=O)C(c3ccccc3)n3c(=O)n(S(=O)(=O)c4ccccc4)c4ccc(C#N)cc43)C2)CC1 (stereo partly drawn) [Example 202, 1-Benzenesulfonyl-2-oxo-3-{2-oxo-1-phenyl-2-[(S)-3-(4-propylpiperazin-1-yl)-pyrrolidin-1-yl]ethyl}-2,3-dihydro-1H-benzimidazole-5-carbonitrile] | 100 to 500
13 | COc1cccc(C(C(=O)N2CCN(c3ccncc3)CC2)n2c(=O)n(S(=O)(=O)c3ccc(OC)cc3OC)c3ccc(Cl)cc32)c1 (stereo not shown) [Example 21, 5-Chloro-1-(2,4-dimethoxybenzenesulfonyl)-3-[1-(3-methoxyphenyl)-2-oxo-2-(4-pyridin-4-ylpiperazin-1-yl)-ethyl]-1,3-dihydrobenzimidazol-2-one] | 100 to 500
14 | COc1ccccc1C(C(=O)N1CCN(c2ccncc2)CC1)n1c(=O)n(S(=O)(=O)c2ccc(C#N)cc2)c2ccc(Cl)cc21 (stereo not shown) [Example 14, 4-{5-Chloro-3-[1-(2-methoxyphenyl)-2-oxo-2-(4-pyridin-4-ylpiperazin-1-yl)ethyl]-2-oxo-2,3-dihydrobenzimidazole-1-sulfonyl}benzonitrile] | 500 to 10000
15 | COc1ccc(S(=O)(=O)n2c(=O)n(C(C(=O)N3CCC(c4ccncc4)C3)c3ccccc3)c3cc(Cl)ccc32)cc1 (stereo not shown) [Example 92, 5-Chloro-1-(4-methoxybenzenesulfonyl)-3-[2-oxo-1-phenyl-2-(3-pyridin-4-yl-pyrrolidin-1-yl)ethyl]-1,3-dihydrobenzimidazol-2-one] | 100 to 500
16 | COc1ccc(S(=O)(=O)n2c(=O)n(CC(=O)N3CCN(C4CCN(C)CC4)CC3)c3cc(Cl)ccc32)cc1 [Example 86, 5-Chloro-1-(4-methoxybenzenesulfonyl)-3-{2-[4-(1-methylpiperidin-4-yl)piperazin-1-yl]-2-oxoethyl}-1,3-dihydrobenzimidazol-2-one] | 500 to 10000

Results, then the compound that gave them:

Row | Ki [nM] | Structure (SMILES)
17 | 100 to 500 | COc1ccc(S(=O)(=O)n2c(=O)n(C(C(=O)N3CCN(c4ccncc4)CC3)c3ccccc3)c3cc(C#N)ccc32)cc1 (stereo not shown) [Example 46, 1-(4-Methoxybenzenesulfonyl)-2-oxo-3-[2-oxo-1-phenyl-2-(4-pyridin-4-ylpiperazin-1-yl)ethyl]-2,3-dihydro-1H-benzimidazole-5-carbonitrile]
18 | < 100 | COc1ccc(S(=O)(=O)n2c(=O)n(C(C(=O)N3CCC[C@H](N4CCN(C)CC4)C3)c3ccccc3)c3cc(C#N)ccc32)cc1 (stereo partly drawn) [Example 193, 1-(4-Methoxybenzenesulfonyl)-3-{2-[(S)-3-(4-methylpiperazin-1-yl)piperidin-1-yl]-2-oxo-1-phenylethyl}-2-oxo-2,3-dihydro-1H-benzimidazole-5-carbonitrile]
19 | < 100 | CCCN1CCN([C@H]2CCN(C(=O)C(c3ccccc3)n3c(=O)n(S(=O)(=O)c4ccc(OC)cc4OC)c4ccc(C#N)cc43)C2)CC1 (stereo partly drawn) [Example 199, 1-(2,4-Dimethoxybenzenesulfonyl)-2-oxo-3-{2-oxo-1-phenyl-2-[(S)-3-(4-propylpiperazin-1-yl)pyrrolidin-1-yl]ethyl}-2,3-dihydro-1H-benzimidazole-5-carbonitrile]
20 | < 100 | CCCN1CCN(C2CCN(C(=O)C(c3ccccc3)n3c(=O)n(S(=O)(=O)c4ccc(OC)cc4)c4ccc(Cl)cc43)C2)CC1 (stereo not shown) [Example 91, 5-Chloro-1-(4-methoxybenzenesulfonyl)-3-{2-oxo-1-phenyl-2-[3-(4-propylpiperazin-1-yl)-pyrrolidin-1-yl]ethyl}-1,3-dihydrobenzimidazol-2-one]
21 | < 100 | COc1ccc(S(=O)(=O)n2c(=O)n(C(C(=O)N3CCCC(N)C3)c3ccccc3)c3cc(Cl)ccc32)cc1 (stereo not shown) [Example 167, 3-[2-(3-Aminopiperidin-1-yl)-2-oxo-1-phenylethyl]-5-chloro-1-(4-methoxybenzenesulfonyl)-1,3-dihydrobenzimidazol-2-one]
22 | < 100 | COc1ccc(S(=O)(=O)n2c(=O)n(C(C(=O)N3CCC(NC4CCNCC4)C3)c3ccccc3)c3cc(Cl)ccc32)cc1 (stereo not shown) [Example 175, 5-Chloro-1-(4-methoxybenzenesulfonyl)-3-{2-oxo-1-phenyl-2-[3-(piperidin-4-ylamino)pyrrolidin-1-yl]ethyl}-1,3-dihydrobenzimidazol-2-one]
23 | < 100 | COc1ccc(S(=O)(=O)n2c(=O)n(C(C(=O)N3CCC[C@H](NC4CCN(C(C)C)CC4)C3)c3ccccc3)c3cc(C#N)ccc32)cc1 (stereo partly drawn) [Example 247, 3-{2-[(S)-3-(1-Isopropyl-piperidin-4-ylamino)-piperidin-1-yl]-2-oxo-1-phenylethyl}-1-(4-methoxy-benzenesulfonyl)-2-oxo-2,3-dihydro-1H-benzoimidazole-5-carbonitrile]
24 | < 100 | CCCN1CCN([C@H]2CCN(C(=O)C(c3ccccc3)n3c(=O)n(S(=O)(=O)c4ccsc4)c4ccc(C#N)cc43)C2)CC1 (stereo partly drawn) [Example 203, 2-oxo-3-{2-oxo-1-phenyl-2-[(S)-3-(4-propylpiperazin-1-yl)pyrrolidin-1-yl]-ethyl}-1-(thiophene-3-sulfonyl)-2,3-dihydro-1H-benzimidazole-5-carbonitrile]
25 | < 100 | COc1ccc(S(=O)(=O)n2c(=O)n(C(C(=O)N3CCCC(N4CCNCC4)C3)c3ccccc3)c3cc(Cl)ccc32)cc1 (stereo not shown) [Example 147, 5-Chloro-1-(4-methoxybenzenesulfonyl)-3-[2-oxo-1-phenyl-2-(3-piperazin-1-ylpiperidin-1-yl)ethyl]-1,3-dihydrobenzimidazol-2-one]

From patent publication US8791148B2, “Substituted benzimidazolone derivatives, medicaments comprising them and their use” (AbbVie Deutschland GmbH & Co. KG, priority 2006, dated 2014)
